Data taken from PMC3731216, “Origin and Functional Diversification of an Amphibian Defense Peptide Arsenal” (PLoS Genetics, 2013).
Values after ≈ are worked out from the molar mass of the structure shown. Where a SMILES comes first, the peptide text is derived from it.

Assays:
[1] = system: T-lymphocytes (naive C57Black/6 splenocytes); test: Inhibition of Concanavalin A-induced T-cell proliferation in spleen cell cultures; type: cell-based, Mus musculus; conditions: lowest concentration causing at least 50% inhibition of Concanavalin A-induced T-cell proliferation; 2×10^5 splenocytes, 24 h + 18 h [3H]thymidine, 37°C; min–max if variable
Description: (§1) Seventeen predicted and recovered peptides were de novo synthesized using solid-phase technology by CASLO Laboratory ApS (Lyngby, Denmark) and delivered as HPLC-purified (>95%) trifluoracetate (TFA) salts. The peptide salts were stored as 5.12 mM stock solutions in 0.01% (V/V) acetic acid/0.2% (m/V) BSA. Peptides were tested against Escherichia coli (ATCC 25922) and Pseudomonas aeruginosa (ATCC 15692), Staphylococcus aureus (ATCC 25923), Micrococcus luteus, Saccharomyces cerevisiae, a protozoan parasite (Trypanosoma brucei brucei), mouse (Mus musculus) red blood cells and mouse spleen tissue cultures (containing 50–60% B-cells, ∼25–30% T-cells, and 5% myeloid cells). All assays were performed in duplicate or triplicate.
Activity against T-lymphocytes was assessed as the lowest peptide concentration in a series of twofold dilutions causing at least 50% inhibition of Concanavalin A-induced T-cell proliferation (IC50). Solutions containin 2×10^5 naive C57Black/6 splenocytes in the presence of 2.5 µg Concanavalin A were added to polypropylene 96-well plates containing the serial peptide dilutions to obtain total volumes of 100 µl. After incubation for 24 hours at 37°C in a humidified atmosphere, the cells were pulsed with [^3H]thymidine and incubated for an additional 18 hours. The amount of [^3H]thymidine incorporation was assessed by a β-counter as a measure of cell proliferation and the percentage of proliferation inhibition for each peptide concentration was calculated as 100×(1−(Tobs/T100%)), where Tobs is the [^3H]thymidine level measured for the peptide concentration, and T100% is the [^3H]thymidine level measured for Concanavalin-A-induced cell proliferation in the absence of peptide (representing 100% proliferation).

[2] = system: Escherichia coli (ATCC 25922); test: MIC assay in liquid medium (twofold dilutions) against E. coli; type: cell-based; conditions: lowest concentration in twofold dilutions with no growth; 5×10^5 CFU/ml, Müller-Hinton broth, 37°C, 18 hours, read by eye; duplicate or triplicate, min–max if variable
Description: as §1
(§2) Activity against the bacteria and fungus was measured by assessing the lowest peptide concentration in a series of twofold dilutions at which no growth was detected (known as the minimum inhibitory concentration, MIC). Bacterial and yeast cultures (5×10^5 colony forming units/ml) were prepared in Müller-Hinton (MH) broth and Luria-Bertani (LB) broth respectively and transferred to serial dilutions of peptides ranging from 512 or 256 µM down to 1 or 0.5 µM in 96-well polypropylene plates. After incubation at 37°C (bacteria) or 30°C (S. cerevisiae) for 18 hours, growth of the cultures was checked by eye. In addition to MIC, we determined minimum microbicidal concentrations (MMC) by inoculating samples of the MIC assays on agar plates lacking peptides and checking for overnight growth. In all cases, MIC and MMC were identical.

[3] = system: mouse red blood cells; test: Hemolysis of mouse red blood cells (HC50); type: cell-based; conditions: lowest concentration causing at least 50% hemolysis; mouse blood diluted 1/100 in RPMI, 37°C, 30 minutes, OD 550 nm; 100% = 1% Tween-20
Description: as §1
Activity against mouse red blood cells was examined by assessing the lowest peptide concentration in a series of twofold dilutions causing at least 50% hemolysis (HC50). Briefly, heparinized blood was obtained by cardiac puncture of mice euthanized via CO2. The blood was diluted 1/100 in RPMI and added to polypropylene 96-well plates containing the serial peptide dilutions to obtain total volumes of 100 µl. The plates were incubated at 37°C in a humidified atmosphere for 30 minutes and centrifuged at 1400 rpm for 2 minutes to pellet intact red blood cells allowing visual observation of hemolysis. Supernatants were subsequently transferred to 96-well flat-bottom plates to allow spectrophotometry using an ELISA reader (OD measured at 550 nm). The percentage of hemolyis for each peptide concentration was calculated as 100×(ODobs−OD0%)/(OD100%−OD0%), where ODobs is the OD measured for the peptide concentration, OD0% is the average OD in the absence of peptides (0% hemolysis), and OD100% is the average OD in the presence of 1% Tween-20 (100% hemolysis).

[4] = system: Micrococcus luteus; test: MIC assay in liquid medium (twofold dilutions) against M. luteus; type: cell-based; conditions: lowest concentration in twofold dilutions with no growth; 5×10^5 CFU/ml, Müller-Hinton broth, 37°C, 18 hours, read by eye; duplicate or triplicate, min–max if variable
Description: as §1, §2

[5] = system: Staphylococcus aureus (ATCC 25923); test: MIC assay in liquid medium (twofold dilutions) against S. aureus; type: cell-based; conditions: lowest concentration in twofold dilutions with no growth; 5×10^5 CFU/ml, Müller-Hinton broth, 37°C, 18 hours, read by eye; duplicate or triplicate, min–max if variable
Description: as §1, §2

[6] = system: Pseudomonas aeruginosa (ATCC 15692); test: MIC assay in liquid medium (twofold dilutions) against P. aeruginosa; type: cell-based; conditions: lowest concentration in twofold dilutions with no growth; 5×10^5 CFU/ml, Müller-Hinton broth, 37°C, 18 hours, read by eye; duplicate or triplicate, min–max if variable
Description: as §1, §2

[7] = system: Saccharomyces cerevisiae; test: MIC assay in liquid medium (twofold dilutions) against S. cerevisiae; type: cell-based; conditions: lowest concentration in twofold dilutions with no growth; 5×10^5 CFU/ml, Luria-Bertani broth, 30°C, 18 hours, read by eye; duplicate or triplicate, min–max if variable
Description: as §1, §2

Structure (SMILES)	IC50 [1]	MIC E. coli [2]	HC50 Erythrocytes [3]	MIC M. luteus [4]	MIC S. aureus [5]	MIC P. aeruginosa [6]	MIC S. cerevisiae [7]
CC[C@H](C)[C@H](NC(=O)[C@H](C)NC(=O)[C@H](CC(=O)O)NC(=O)[C@H](CC(C)C)NC(=O)CNC(=O)CNC(=O)[C@H](CCCCN)NC(=O)[C@H](C)NC(=O)[C@H](Cc1ccccc1)NC(=O)[C@H](CCCCN)NC(=O)[C@H](CCCCN)NC(=O)[C@H](CC(C)C)NC(=O)CNC(=O)CNC(=O)[C@H](CC(C)C)NC(=O)[C@@H](NC(=O)[C@@H](NC(=O)[C@H](CO)NC(=O)[C@H](Cc1c[nH]c2ccccc12)NC(=O)[C@@H](NC(=O)CN)C(C)C)[C@@H](C)O)[C@@H](C)CC)C(=O)N[C@H](C(=O)N[C@@H](CC(N)=O)C(=O)N1CCC[C@H]1C(=O)N[C@@H](CCCCN)C(=O)O)C(C)C [XPF-St6] (H-GVWSTILGGLKKFAKGGLDAIVNPK-OH)	8 µM	2 to 4 µM	64 µM	0,5 µM	8 to 16 µM	16 µM (≈ 41.1 µg/mL)	8 µM (≈ 20.6 µg/mL)
CC[C@H](C)[C@H](NC(=O)[C@@H]1CCCN1C(=O)[C@H](CCC(N)=O)NC(=O)[C@@H](NC(=O)[C@H](CC(C)C)NC(=O)[C@H](CCCCN)NC(=O)[C@@H]1CCCN1C(=O)CNC(=O)[C@H](CC(C)C)NC(=O)[C@H](CCC(N)=O)NC(=O)[C@H](CCSC)NC(=O)[C@H](C)NC(=O)[C@H](CCCCN)NC(=O)[C@H](CCCNC(=N)N)NC(=O)[C@H](CC(C)C)NC(=O)[C@@H](NC(=O)[C@H](CCCCN)NC(=O)CNC(=O)[C@H](Cc1ccccc1)NC(=O)[C@@H](NC(=O)[C@@H]1CCCN1C(=O)[C@H](CC(C)C)NC(=O)[C@H](Cc1c[nH]c2ccccc12)NC(=O)CN)[C@@H](C)O)[C@@H](C)CC)[C@@H](C)CC)C(=O)O [XPF-St5] (H-GWLPTFGKILRKAMQLGPKLIQPI-OH)	8 to 16 µM	1 to 2 µM	128 µM	1 µM (≈ 2.71 µg/mL)	16 µM (≈ 43.3 µg/mL)	8 to 16 µM	32 µM (≈ 86.6 µg/mL)
CC(C)C[C@H](NC(=O)CNC(=O)[C@H](C)NC(=O)[C@@H](NC(=O)[C@H](CC(N)=O)NC(=O)[C@H](CO)NC(=O)[C@H](CC(C)C)NC(=O)[C@H](CC(C)C)NC(=O)CN)C(C)C)C(=O)N[C@@H](CC(C)C)C(=O)N[C@@H](CCCCN)C(=O)N[C@@H](CCC(N)=O)C(=O)N[C@@H](Cc1ccccc1)C(=O)N[C@@H](C)C(=O)N[C@@H](CCCCN)C(=O)NCC(=O)NCC(=O)N[C@H](C(=O)N[C@@H](CC(N)=O)C(=O)N[C@@H](C)C(=O)N[C@H](C(=O)N[C@@H](CC(C)C)C(=O)N[C@@H](CC(N)=O)C(=O)N1CCC[C@H]1C(=O)N[C@@H](CCCCN)C(=O)O)C(C)C)C(C)C [XPF-St7] (H-GLLSNVAGLLKQFAKGGVNAVLNPK-OH)	16 µM	8 µM (≈ 20.1 µg/mL)	>256 µM	1 µM (≈ 2.51 µg/mL)	128 µM (≈ 321 µg/mL)	32 µM (≈ 80.3 µg/mL)	32 µM (≈ 80.3 µg/mL)
CC[C@H](C)[C@H](NC(=O)[C@H](C)NC(=O)[C@H](CCC(=O)O)NC(=O)[C@H](CC(C)C)NC(=O)CNC(=O)CNC(=O)[C@H](CCCCN)NC(=O)[C@H](C)NC(=O)[C@H](Cc1ccccc1)NC(=O)[C@H](CCCCN)NC(=O)[C@H](CCCCN)NC(=O)[C@H](CC(C)C)NC(=O)CNC(=O)CNC(=O)[C@H](CC(C)C)NC(=O)[C@@H](NC(=O)[C@@H](NC(=O)[C@H](CO)NC(=O)[C@H](Cc1c[nH]c2ccccc12)NC(=O)[C@@H](NC(=O)CN)C(C)C)[C@@H](C)O)C(C)C)C(=O)N[C@H](C(=O)N[C@@H](CC(N)=O)C(=O)N1CCC[C@H]1C(=O)N[C@@H](CCCCN)C(=O)O)C(C)C [XPF-St1] (H-GVWSTVLGGLKKFAKGGLEAIVNPK-OH)	16 µM	4 µM (≈ 10.3 µg/mL)	128 µM	0,5 µM	32 to 64 µM	32 µM (≈ 82.2 µg/mL)	32 µM (≈ 82.2 µg/mL)
CC[C@H](C)[C@H](NC(=O)[C@H](CC(C)C)NC(=O)[C@H](CCCCN)NC(=O)[C@H](CO)NC(=O)[C@H](C)NC(=O)CNC(=O)[C@H](CCCCN)NC(=O)[C@H](CC(C)C)NC(=O)[C@H](C)NC(=O)[C@H](CCSC)NC(=O)[C@H](CCCCN)NC(=O)[C@H](C)NC(=O)[C@H](Cc1ccccc1)NC(=O)[C@@H](NC(=O)CNC(=O)[C@H](Cc1ccccc1)NC(=O)[C@H](CC(C)C)NC(=O)[C@@H](N)CO)[C@@H](C)O)C(=O)N1CCC[C@H]1C(=O)N[C@@H](Cc1c[nH]cn1)C(=O)N[C@@H](CC(C)C)C(=O)N[C@@H](CC(C)C)C(=O)N1CCC[C@H]1C(=O)N[C@@H](CO)C(=O)N[C@@H](CCCNC(=N)N)C(=O)N[C@@H](CCC(N)=O)C(=O)N[C@@H](CCC(N)=O)C(=O)O [CPF-St4] (H-SLFGTFAKMALKGASKLIPHLLPSRQQ-OH)	2 µM	2 to 4 µM	64 µM	0,5 µM	1 µM	4 to 8 µM	16 µM
CC[C@H](C)[C@H](NC(=O)[C@H](CO)NC(=O)[C@H](CO)NC(=O)[C@H](C)NC(=O)[C@H](Cc1c[nH]c2ccccc12)NC(=O)CN)C(=O)NCC(=O)N[C@@H](CO)C(=O)N[C@H](C(=O)N[C@@H](CC(C)C)C(=O)NCC(=O)N[C@@H](CCCCN)C(=O)N[C@@H](Cc1ccccc1)C(=O)N[C@@H](C)C(=O)N[C@@H](CCCCN)C(=O)NCC(=O)NCC(=O)N[C@@H](C)C(=O)N[C@@H](CCC(N)=O)C(=O)N[C@@H](C)C(=O)N[C@@H](Cc1ccccc1)C(=O)N[C@@H](CC(C)C)C(=O)N[C@@H](CCC(N)=O)C(=O)N1CCC[C@H]1C(=O)N[C@@H](CCCCN)C(=O)O)[C@@H](C)CC [XPF-St4] (H-GWASSIGSILGKFAKGGAQAFLQPK-OH)	64 µM	32 µM (≈ 80.6 µg/mL)	256 µM	0,5 µM	>256 µM	128 µM (≈ 323 µg/mL)	64 µM (≈ 161 µg/mL)
CC[C@H](C)[C@H](NC(=O)[C@H](Cc1ccccc1)NC(=O)CNC(=O)[C@H](CCCCN)NC(=O)[C@H](C)NC(=O)[C@H](Cc1ccccc1)NC(=O)[C@H](CCCCN)NC(=O)[C@H](CCCCN)NC(=O)[C@H](C)NC(=O)[C@H](CO)NC(=O)[C@H](Cc1c[nH]cn1)NC(=O)[C@H](C)NC(=O)[C@@H](NC(=O)[C@H](CCC(=O)O)NC(=O)[C@H](CCCCN)NC(=O)[C@H](CC(C)C)NC(=O)CN)C(C)C)C(=O)N[C@@H](CO)C(=O)NCC(=O)N[C@@H](CC(C)C)C(=O)N[C@H](C(=O)NCC(=O)N[C@@H](CO)C(=O)O)[C@@H](C)O [magainin-St1] (H-GLKEVAHSAKKFAKGFISGLTGS-OH)	> 256 µM	64 µM (≈ 149 µg/mL)	>256 µM	32 µM (≈ 74.7 µg/mL)	>256 µM	>256 µM	128 µM (≈ 299 µg/mL)
